Experimental data taken from patent US20250367209A1 (SOUTHERN RESEARCH INSTITUTE, priority 2022, published 2025).
“Also recorded” adds a separate entry of the source.

Key:
[1] = tested on: endogenous Tau-Fyn interaction; test: Endogenous Tau-Fyn PLA in primary neurons; format: cell-based, rat; details: 3 μM and 15 μM, 24 hours
Method: Endogenous Tau-Fyn PL, in primary neurons: All PLA protocols were adapted from our recent study (Rush, et al. (2020) Neurobiol Dis 134, 104668).
For the endogenous Tau-Fyn PLA, neurons were grown on coverslips as described above to DIV20, then treated with compound no. 69 or vehicle, and fixed with PFA 24 hours later. Dako Tau (1:1000) and Fyn15 (1:250) antibodies were used. Duolink In Situ Fluorescence kit was used for PLA. Briefly, coverslips with fixed cells were permeabilized for 10 minutes in 0.25% Triton X-100, then blocked in 5% NGS in PBS for one hour at room temperature. Coverslips were incubated overnight at 4° C. with primary antibody in 1% NGS, then washed 3×5 minutes in PBS. Coverslips were then incubated for 1 hour at 37° C. in PLA probes (Anti-Mouse minus, Anti-Rabbit plus). […] To quantify PLA puncta, PLA fluorescence was thresholded, then ImageJ particle analyzer was run, specifying size and circularity to exclude any non-punctate signal. Quantified values were then normalized to values for vehicle-treated slides from that experiment. […]

[2] = molecular target: Tau-BIN1SH3 interaction (Homo sapiens (Human), UniProt P10636); test: Tau-Flag PLA, Tau-BIN1SH3; format: cell-based; details: 15 μM, HEK-293 cells
Method: Tau-Flag PLA for Tau-SH3 interactions: To clone the SH3 constructs, a C-terminal Flag tag was added to the Tau construct using PCR, then the Tau sequence was replaced with the desired SH3 domain using In-Fusion HD cloning kit (Takara Bio). Next, an N-terminal GST tag was added to help expression using In-Fusion, resulting in GST-SH3-Flag plasmids. As a negative control, restriction enzymes were used to remove the FynSH3 from the FynSH3 construct, resulting in GST-Flag. All sequences were confirmed with Sanger sequencing, and expression in HEK-293 cells was verified by western blot and immunocytochemistry. Plating and experimental timeline was the same as above. Cells were transfected with 125 ng of Tau-mKate2 and 500 ng SH3 plasmid with 1.5 μL Fugene. compound no. 69 was applied to final concentration 15 μM. For Tau-SH3 PLA, we used Dako Tau (1:1000) and Flag (1:1000) primary antibodies.

[3] = molecular target: Fyn kinase (Homo sapiens (Human), UniProt P06241); test: Custom panel for Fyn kinase activity; format: biochemical; details: 3 μM
Excerpt: 69 and compound no. […] Since Fyn was not included in that panel, a custom panel was completed for Fyn kinase activity.

[4] = molecular target: full-length Tau (Homo sapiens (Human), UniProt P10636); test: Isothermal titration calorimetry, full-length Tau; format: binding
Excerpt: Human Fyn-SH3 domain with GST-tag at the N-terminus and a Strep-tag II ([…]) at the C-terminus (GST-Fyn-SH3-Strep) was cloned into pPR-IBA1 vector (IBA Lifesciences) (Cochran, et al. (2014) J. Biomol. Screen. 19, 1338-1349). Codon-optimized human 4R2N Tau for E. coli expression with a Strep-tag II at the C-terminus (His-Tau-Strep) was cloned into pET-28a(+) vector (Novagen). The constructs were transformed into E. coli BL-21(DE3) competent cells (Novagen). For GST-Fyn-SH3-Strep purification, a single colony was inoculated in Luria-Bertani (LB) broth at 37° C. overnight. 10 mL cell culture was added into 500 mL LB medium and cultured at 37° C. 0.5 mM Isopropyl β-D-1-thiogalactopyranoside (IPTG) was added into the culture when OD600 reached 0.7. Cells were further cultured at 25° C. for 4 hours and harvested. Cell pellet was resuspended in lysis buffer (20 mM Tris pH 7.9, 300 mM NaCl, 1 mM TCEP) with 1 tablet of EDTA-free protease inhibitors (ThermoFisher) and 1 mg/ml lysozyme. Cells were disrupted by sonication and debris was removed by centrifugation at 9500 rpm for 1 hour. Supernatant was loaded onto a glutathione-sepharose column (Cytiva). The column was washed in lysis buffer and protein eluted in lysis buffer containing 25 mM reduced glutathione. For His-Tau-Strep protein purification, cells were inoculated in LB broth medium and cultured at 37° C. overnight. A 10 mL overnight culture was added to 500 mL of auto-induction medium (Studier, F. W. (2005) Protein Expr Purif 41, 207-34) and cells were cultured at 37° C. for about 5 hours. The temperature was lowered to 18° C., and cells were cultured overnight. Cells were harvested and resuspended in lysis buffer with 20 mM imidazole, protease inhibitors, and lysozyme. Cells were disrupted by sonication and cell pellets were spun down at 9500 rpm for 1 hour. Supernatant was loaded onto Ni-NTA column (Cytiva) and the column was washed in lysis buffer with 20 mM imidazole. His-Tau-Strep protein was eluted in lysis buffer containing 400 mM imidazole. Both eluted GST-Fyn-SH3-Strep and His-Tau-Strep protein solutions were passed through G-25 desalting column (Cytiva) with lysis buffer and loaded onto high capacity Strep-Tactin column (IBA Lifesciences). The columns were washed in Buffer W (IBA Life sciences) and proteins were eluted in Buffer E (IBA life sciences). The eluted proteins were passed through G-25 desalting column again. […]
Purified full-length Tau and FynSH3 were dialyzed into 20 mM Tris and 150 mM NaCl, pH 8.0 with Slide-A-Lyzer G2 Dialysis Cassettes with 10K MWCO (ThermoFisher #87729). […] Protein concentrations were measured on a Nanodrop2000 (ThermoFisher) based on absorbance at 280 nm. […]

Sequence of full-length Tau (P10636 other isoform, or with tags, fused parts or gaps): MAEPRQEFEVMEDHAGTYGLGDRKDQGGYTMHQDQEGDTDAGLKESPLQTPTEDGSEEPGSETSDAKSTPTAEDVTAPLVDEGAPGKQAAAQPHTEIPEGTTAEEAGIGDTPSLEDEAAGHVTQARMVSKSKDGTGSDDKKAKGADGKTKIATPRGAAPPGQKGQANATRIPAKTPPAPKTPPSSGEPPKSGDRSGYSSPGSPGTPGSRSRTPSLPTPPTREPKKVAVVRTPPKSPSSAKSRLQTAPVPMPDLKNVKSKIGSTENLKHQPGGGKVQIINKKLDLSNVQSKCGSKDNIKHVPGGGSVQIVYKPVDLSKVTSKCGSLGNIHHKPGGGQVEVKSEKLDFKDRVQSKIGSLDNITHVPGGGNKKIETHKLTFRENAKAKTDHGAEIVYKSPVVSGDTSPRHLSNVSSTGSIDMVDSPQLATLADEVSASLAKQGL
Sequence of Tau-BIN1SH3 interaction (P10636 other isoform, or with tags, fused parts or gaps): as above
Sequence of Fyn kinase (P06241 whole entry): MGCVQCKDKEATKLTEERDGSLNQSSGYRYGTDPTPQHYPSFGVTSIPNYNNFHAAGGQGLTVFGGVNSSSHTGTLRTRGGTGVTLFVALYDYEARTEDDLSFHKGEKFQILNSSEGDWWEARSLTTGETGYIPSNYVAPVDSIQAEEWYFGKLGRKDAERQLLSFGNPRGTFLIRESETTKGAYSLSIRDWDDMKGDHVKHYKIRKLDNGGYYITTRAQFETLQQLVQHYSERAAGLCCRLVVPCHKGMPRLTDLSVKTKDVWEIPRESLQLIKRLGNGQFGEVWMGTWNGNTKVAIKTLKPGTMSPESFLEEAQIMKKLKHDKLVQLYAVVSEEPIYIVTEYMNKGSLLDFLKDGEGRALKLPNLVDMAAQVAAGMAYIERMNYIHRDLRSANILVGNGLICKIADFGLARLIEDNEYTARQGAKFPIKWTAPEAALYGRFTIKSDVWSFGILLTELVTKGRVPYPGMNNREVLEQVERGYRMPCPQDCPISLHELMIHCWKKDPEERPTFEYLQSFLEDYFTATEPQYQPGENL

O=C(CN1CCOc2ccccc21)Nc1nnc(-c2ccccn2)[nH]1 [compound no. 69]
endogenous Tau-Fyn interaction, PLA in primary neurons [1]: inhibited endogenous Tau-Fyn interaction at both 3 μM and 15 μM; also recorded: reduces endogenous Tau-Fyn PLA
Tau-BIN1SH3 interaction, Tau-Flag PLA [2]: moderately inhibited; also recorded: inhibits Tau-BIN1SH3 interaction
Fyn kinase inhibition [3]: did not inhibit Fyn
ΔG, ITC with full-length Tau ([4]; 25° C.): -6.7 kcal/mol
ΔH, ITC with full-length Tau ([4]; 25° C.): -1.5 kcal/mol
Kd ([4]; 25° C., read-out: Kd, ITC with full-length Tau): 11.9 µM
n, ITC with full-length Tau ([4]; one set of sites model): 0.9
